Laboratory results reported in article PMC4072041 (Nuclear medicine and biology, 2014).

Tests used:
CRF1 receptor = settings: earlier CRF1 ligand; cited from earlier work
CRF1 vs. CRF2 receptors = settings: stated in method, no reference given; cited from earlier work
[125I]ovine-CRF = target: T1, [125I]ovine-CRF (Ovis aries, UniProt P01142, 125I-labelled CRF); assay: radioligand binding
T1 chain: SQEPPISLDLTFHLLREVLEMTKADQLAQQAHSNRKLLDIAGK

For `CCC(COC)n1nnc2c(Nc3ccc(OC)cc3C)nc(C)cc21` (racemic) [[^3H]SN003, (+/−)-N-[2-methyl-4-methoxyphenyl]-1(1-(methoxymethyl)propyl)-6-methyl-1H-1,2,3-triazolo[4,5-c]pyridin-4-amine], the “ratio of CRF1 receptor-specific to non-specific binding” value (CRF1 receptor) is given as “about 1”.

In the case of ovine-CRF, the “selective for CRF1 vs. CRF2” value (CRF1 vs. CRF2 receptors) is listed as greater than 100 fold.

B1: CRF1 receptor (protein)
chain: SLQDQRCENLSLTSNVSGLQCNASVDLIGTCWPRSPAGQLVVRPCPAFFYGVRYNTTNNGYRECLANGSWAARVNYSECQEILNEEKKSKVHYHVAVIINYLGHCISLVALLVAFVLFLRLRSIRCLRNIIHWNLISAFILRNATWFVVQLTVSPEVHQSNVAWCRLVTAAYNYFHVTNFFWMFGEGCYLHTAIVLTYSTDRLRKWMFVCIGWGVPFPIIVAWAIGKLHYDNEKCWFGKRPGVYTDYIYQGPMILVLLINFIFLFNIVRILMTKLRASTTSETIQYRKAVKATLVLLPLLGITYMLFFVNPGEDEVSRVVFIYFNSFLESFQGFFVSVFYCFLNSEVRSAIRKRWRRWQDKHSIRARVARAMSIPTSPTRVSFHSIKQSTAV
Molecule B1 has a Kd ([125I]ovine-CRF) of 0.45 nM.
